Earlier results, collected in PMC8198792, “Prediction of Anticancer Peptides with High Efficacy and Low Toxicity by Hybrid Model Based on 3D Structure of Peptides” (International Journal of Molecular Sciences, 2021).
Like-named read-outs stand apart in the source and are kept apart here.

Test system: cancer cell lines
Set-up: method as in 6 sources, ref CancerPPD [45] and SATPdb ||| ref CancerPPD/SATPdb ||| ref CancerPPD, SATPdb, Swissprot (PDB) ||| ref CancerPPD/SATPdb/Swissprot(PDB) ||| ref CancerPPD / SATPdb ||| ...
Details: cited from earlier work
Excerpt: Supplement ijms-22-05630-s001.zip/ACPs(seguence).xlsx, sheet "D1" | column: Activity || Supplement ijms-22-05630-s001.zip/ACPs(seguence).xlsx, sheet "D2" | column: Activity || Supplement ijms-22-05630-s001.zip/ACPs(seguence).xlsx, sheet "D3" | column: Activity || (+ 2 further places)

[1] = ACPs dataset D1, 1 = ACP (positive), 0 = non-ACP (negative), label taken from databases, ref CancerPPD [45] and SATPdb
[2] = ACPs dataset D4 (sheet "D4"), label 1 = ACP (CancerPPD ID), 0 = non-ACP (non-anticancer AMP, SATPdb ID), ref CancerPPD [45] and SATPdb
[3] = ACPs dataset D1, label 1 = ACP, 0 = non-ACP (non-anticancer AMPs from SATPdb), ref CancerPPD/SATPdb
[4] = ACPs dataset D2 (supplement ACPs(seguence).xlsx, sheet D2), dataset label 1/0 (ACP / non-ACP), entries identified by Swissprot(PDB ID), ref CancerPPD/SATPdb/Swissprot(PDB)
[5] = ACPs dataset D5, sheet "D5", label 1 = ACP, 0 = non-ACP, ref CancerPPD [45] and SATPdb
[6] = ACPs dataset D3 (supplement sheet "D3"), 1 = ACP, 0 = non-ACP, ref CancerPPD [45] and SATPdb
[7] = ACPs dataset D5 (sheet "D5"), label 1 = ACP (positive set), 0 = non-ACP (negative set), ref CancerPPD [45] and SATPdb
[8] = ACPs dataset D4 (sheet "D4"), label 1 = ACP, experimentally validated ACPs, ref CancerPPD [45] and SATPdb
[9] = ACPs dataset D5 (sheet "D5"), label 1 = ACP (positive set), sequences with CancerPPD/SATPdb ID, ref CancerPPD, SATPdb
[10] = ACPs dataset sheet D2, 1 = ACP (CancerPPD/SATPdb ID), 0 = non-ACP (Swissprot/PDB ID), ref CancerPPD, SATPdb, Swissprot (PDB)
[11] = ACPs dataset D3 (sheet "D3"), label 1 = ACP, 0 = non-ACP, ref CancerPPD/SATPdb
[12] = ACPs dataset D4 (sheet "D4"), label 1 = ACP, 0 = non-ACP, ref CancerPPD / SATPdb

Substance | Activity [1] | Activity [2] | Activity [8] | Activity [9] | Activity [10] | other results
KWKIFKKIEHMGQNIRDGLIKAGPAVQVVGQAATIYKG [satpdb11253] | 0 | 0 | – | – | – | –
LVRGCWTKSYPPKPCFVR [satpdb11395] | – | 0 | – | – | – | Activity [3]: 0
GGLKKLGKKLEGAGKRVFNAAEKALPVVAGAKALG [satpdb11024] | 0 | 0 | – | – | – | –
EECGPNEVFNTCGSACAPTCAQPKTRICTMQCRIGCQCQEGFLRNGEGACVLPENC [1CCV NMR - A 1-56] | – | – | – | – | – | Activity [4]: 0; Activity [5]: 0
KWKSFLKTFKSlKKTVLHTlLKAISS [compound 3756] | – | 1 | – | – | – | Activity [6]: 1; Activity [7]: 1
GLLSVLGSVAKHVLPHVVPVIAEHL [compound 4424] | 1 | – | 1 | 1 | 1 | –
KWKSFLKTFKSLKkTVLHTLLkAISS [compound 3766] | – | 1 | – | – | – | Activity [6]: 1; Activity [7]: 1
MDKVQYLTRSAIRRASTIEMPQQARQNLQNLFINFCLILICLLLICIIVMLL [4KYT X-ray 2.83 B/C 1-52] | – | – | – | – | – | Activity [4]: 0; Activity [5]: 0
KGRGKRRREKQRPCDKPRR [satpdb15140] | 1 | – | 1 | 1 | 1 | –
KWKLFKKIGPGKFLHSAKKF [compound 1186] | – | 1 | – | – | – | Activity [6]: 1; Activity [7]: 1
GIGGVLLSAGKAALKGLAKVLAEKYAN [compound 4400] | 1 | – | 1 | 1 | 1 | –
GIFSLIKGAAKLITKTVAKEAGKTGLELMACKVTNQC [satpdb12414] | – | 0 | – | – | – | Activity [3]: 0
KWKLFKKIPLHLAKKF [compound 1139] | – | 1 | – | – | – | Activity [6]: 1; Activity [7]: 1
KWKSFIKKLTDKFLHSAKKF [satpdb12512] | – | – | – | – | – | Activity [11]: 0; Activity [12]: 0; Activity [5]: 0
GLFVGVLAKVAAHVVPAIAEHF [compound 4391] | 1 | – | 1 | 1 | 1 | –
LCYARRRFAVCV [satpdb13142] | – | – | – | – | – | Activity [3]: 0; Activity [12]: 0
KVNANAIKKGGKAIGKGFKVISAASTAHDVYEHIKNRRH [satpdb12894] | – | – | – | – | – | Activity [3]: 0; Activity [12]: 0
ASSGWVCTLTIECGTVICACR [satpdb11450] | – | 0 | – | – | – | Activity [3]: 0
RGGRLCYCRRRFCVCVGR [compound 4251] | – | 1 | – | – | – | Activity [6]: 1; Activity [7]: 1
GLFDIVKKVVGTLAGL [compound 4409] | 1 | – | 1 | 1 | 1 | –
VOLKfPVOLfP [satpdb14846] | – | – | – | – | – | Activity [11]: 0; Activity [12]: 0; Activity [5]: 0
TSWSPCSASCGGGHYQRTR [satpdb16504] | 1 | – | 1 | 1 | 1 | –
KWKLFAKIGIGKFLHLAKKF [compound 1837] | – | 1 | – | – | – | Activity [6]: 1; Activity [7]: 1
ALLGDFFRKSKEKIGKEFKRIVQRIKDFLRNLVPRTES [satpdb12863] | – | – | – | – | – | Activity [3]: 0; Activity [12]: 0
VAKKLAKLAKKLAKLAL [compound 1919] | – | 1 | – | – | – | Activity [6]: 1; Activity [7]: 1
GSIPCEGSCVFIPCISAIIGCSCSNKVCYKN [compound 4379] | 1 | – | 1 | 1 | 1 | –

Substance | Activity [1] | Activity [2] | Activity [8] | Activity [9] | Activity [10] | other results
rrrrrrrrGEDIIRNIARHAAQVGASMDR [compound 4239] | – | 1 | – | – | – | Activity [6]: 1; Activity [7]: 1
GSIPCGESCVFIPCISSVIGCACKSKVCYKN [compound 4374] | 1 | – | 1 | 1 | 1 | –
FLKLLKKLAAKLF [compound 1005] | 1 | – | 1 | 1 | 1 | –
GFGCPGNQLKCNNHCKSISCRAGYCDAATLWLRCTCTDCNGKK [satpdb11046] | 0 | 0 | – | – | – | –
FAKKLAKLAKKLAKLAL [compound 1787] | – | – | 1 | 1 | – | Activity [6]: 1
TSWSQCSKTCGTGISTRV [satpdb19109] | 1 | – | 1 | 1 | 1 | –
RRPKGRGKRRREKQRPTDCHLCGDAVPRR [satpdb17014] | 1 | – | 1 | 1 | 1 | –
GILNTIKSIASKLKRKAK [satpdb10259] | 0 | 0 | – | – | – | –
GMWSKILGHLKR [compound 3637] | – | 1 | – | – | – | Activity [6]: 1; Activity [7]: 1
GIACGESCVFLGCFIPGCSCKSKVCYFN [compound 4397] | 1 | – | 1 | 1 | 1 | –
SPPNQPSIMTFDYAKTNK [satpdb13153] | – | – | – | – | – | Activity [3]: 0; Activity [12]: 0
PLLQATLGGGS [compound 3726] | 1 | – | 1 | 1 | 1 | –
GIIKKIIKKI [compound 2839] | – | 1 | – | – | – | Activity [6]: 1; Activity [7]: 1
NPEDWFTPDTCAYGDSNTAWTTCTTPGQTCYTCCSSCFDVVGEQACQMSAQC [2KC6 NMR - A 1-52] | – | – | – | – | – | Activity [4]: 0; Activity [5]: 0
FISAIASFLGKFL [satpdb11448] | – | 0 | – | – | – | Activity [3]: 0
SYSMEHFRWGKPV [2IQP model - B 1-13] | – | – | – | – | 0 | Activity [7]: 0
FKRiVQRiKDFlRNLV [compound 1530] | – | – | 1 | 1 | – | Activity [6]: 1
RCRLAERRQIAK [satpdb18274] | 1 | – | 1 | 1 | 1 | –
KAAKKAWKAWKKAAKAAWKKAA [compound 4477] | 1 | – | 1 | 1 | 1 | –
TEWSACNVRCGRGWQKRSR [satpdb12052] | 1 | – | 1 | 1 | 1 | –
ERRCPRILKQCKRDSDCPGECICMAHGFCG [1EWU model - I 1-30] | – | – | – | – | 0 | Activity [7]: 0
GFGMALKLLKKVL [compound 3586] | – | 1 | – | – | – | Activity [6]: 1; Activity [7]: 1
QLKKCWNNYVQGHCRKICRVNEVPEALCENGRYCCLNIKELEAC [satpdb10388] | 0 | 0 | – | – | – | –
NVWKKILGKIIKVVK [compound 4347] | – | 1 | – | – | – | Activity [6]: 1; Activity [7]: 1
FFHHIFRGIVHVGKTIHRLVTG [compound 4437] | 1 | – | 1 | 1 | 1 | –
GKWMSLWKHILK [compound 3657] | – | 1 | – | – | – | Activity [6]: 1; Activity [7]: 1
